From patent US20060167229A1, “Biologically active peptide conjugates” (priority 2002, published 2006)
“Also recorded” adds a separate entry of the source. Marks after values point to notes of the source that are not given here. Ends that are not written are not given here.

Assays:
NK cell = NK cell cytotoxicity activity test (spleen cells of treated mice against YAC-1 target cells, MTT); assay type: in vivo, BALB/c mice
Description: The above substances were all dissolved in 0.5 ml saline and injected intraperitoneal (i.p.) for 15 continuous days, once per day.
Ten mice per group. The day after the last test substance administration, the mice were sacrificed by cervical dislocation. The spleen was isolated aseptically and manually dispersed in cold D-Hank's solution using an injection needle. The dispersed cell suspension was further sieved through a 100 gauge 150 μm diameter stainless steel sieve. After centrifugation at 200 g for 10 minutes, the supernatant was discarded. The cell pellet was re-suspended in 10 volume of Tris-NH4Cl buffer and then kept standing still for 10 minutes at room temperature. The suspended cells were collected by centrifugation at 150 g for 10 minutes. The cells were washed 2-4 times with cold D-Hank's solution by re-suspending and collecting by centrifugation with condition as described above. The washed cells were then diluted to the desired cell densities by RPMI-1640 culture medium, containing 10% fetal bovine serum.
Mice spleen cells were prepared to 4×10^6/ml as described in section 1.1 above. Target cells YAC-1 were brought to log phase and adjusted to 1×10^5/ml. Using a 96 wells cell culture plate, […] were added to the control well containing only the spleen cells; […] and 100 μl culture medium were added to the control well containing only target cells; 100 μl mouse spleen cells and 100 μl target cells were added to the NK activity assay well. Three parallel sets of the above were prepared per mouse.
Samples were centrifuged at 150 g for 10 minutes to collect the cells. The supernatant was discarded and 50 μl/well MTT of 1 mg/ml was added. The reaction-mixture was then shaken for 2 minutes, and incubated at 37° C., 5% CO2 for 4 hours. The supernatant was discarded after centrifugation at 150 g for 10 minutes. […] 40 mM HCl-2-propanol was added and shaken for 3 minutes. An ELISA reader was used to obtain OD570 nm of each well referenced at 630 nm.

anti-SRBC antibody = experiment: Sheep Red Blood Cell (SRBC) hemolysis test, antibody formation; assay type: in vivo, BALB/c mice; conditions: for anti-SRBC antibody formation, X ± SD (Unit): healthy mice, SRBC day 12 (IFN-γ, IL-2 3×10^5 IU/kg/day), saline 32 ± 7
Description: Sheep red blood cells (SRBC) were prepared by collecting blood from cervical vein and put into a sterile flask with glass beads. The flask was shaken for 3 minutes and the blood then mixed with Alsever solution (glucose 2.05 g, NaCl 0.4 g, […] 0.8 g, adjust to 100 ml with distilled water) and stored at 4° C. Immediately before use, samples were centrifuged at 130 g, 5 minutes to collect the SRBC. The cells were washed two times by re-suspension and centrifugation in normal saline. Then the cell pellet was collected by centrifugation at 180 g for 10 minutes and re-suspended in saline to make the final working SRBC suspension, 2% (v/v).
Complement was prepared by adding 10 volumes of fresh Cavy serum into one volume centrifuge packed SRBC, and then gently shaking for 30 minutes at 4° C. The SRBC was removed by centrifugation at 200 g for 10 minutes. 10 volumes of normal saline were added to obtain the working complement solution.
The test substances were administered as described in section 1.1, plus intraperitoneal injection 0.2 ml SRBC per mouse on day 12. On the day after the last test substance administration (day 16), blood was collected from the eye canthus and left at room temperature for one hour for serum exudation. After centrifugation at 200 g for 10 minutes, the serum was diluted by 500 times with normal saline.
To 1 ml diluted mouse serum of each mouse, 0.5 ml SRBC suspension was added. Ice cold. Then 1 ml working complement solution was added and incubated at 37° C. water bath for 10 minutes. Reactions were terminated by ice cold. Samples were then centrifuged at 200 g for 10 minutes to obtain the supernatant.
To 1 ml of this supernatant, 3 ml Drabkin solution was added and left at room temperature for 10 minutes. OD540 nm was obtained.
Reference OD540 nm was obtained by mixing 0.25 ml SRBC suspension with Drabkin solution to 4 ml and placed at room temperature for 10 minutes before OD540 nm was taken.
Sample serum index=(OD540 nm of test sample÷reference OD540 nm)×500

mononuclear phagocyte = experiment: Carbon particle clearance test, phagocytosis function; assay type: in vivo, BALB/c mice; parameters: key to X ± SD (phagocytotic index): α = cube root of K × (body weight ÷ liver+spleen weight); conditions: for X ± SD (phagocytotic index): healthy mice, saline 5.1 ± 0.6; for effect on the phagocytotic activity of mononuclear phagocyte (summary): statistically significant difference from saline in any of the dosage groups 0.5-500 μg/kg/day
Description: On the next day after the last test substance administration (day 16), the mice were injected with […] body weight India ink (5 times dilution with normal saline) from the tail vein.
One minute and five minutes after Indian ink injection, 20 μl blood was obtained from the eye canthus with a heparinized tubing. The blood was mixed with 2 ml 0.1% w/v Na2CO3 and then OD680 nm obtained. The outline clear index K was calculated by the following formula: K=(lgA1−lgA2)÷(t2−t1)
(§1) One day after the last test substance administration (day 16), the liver, spleen, and thymus gland were separated and blotted dry with filter paper and weighed. The phagocytosis index α was calculated as below: α=(^3√{square root over ( )}K)(W÷WLS)

thymus gland = experiment: Immunity organ weight test, thymus gland index; assay type: in vivo, BALB/c mice; conditions: for weight of thymus gland (thymus gland index), X ± SD (%): healthy mice, saline 0.12 ± 0.02; for effect on the weight of the thymus gland (summary): statistically significant difference from saline in any of the dosage groups 0.5-500 μg/kg/day
Description: as §1
Thymus gland index (%)=(thymus weight/body weight)×100%

spleen = experiment: Immunity organ weight test, spleen index; assay type: in vivo, BALB/c mice
Description: as §1
Spleen index (%)=(spleen weight/body weight)×100%

[1] = system: Masugi nephritis rat model; experiment: Masugi nephritis rat model; conditions: for urine protein level: 24 h urine; for spleen index / Serum creatinine level: after three weeks of treatment; for spleen index: placebo 4.8 ± 1.1, normal 2.4 ± 0.1; for Serum creatinine level: placebo 265 ± 212, normal 80 ± 1; for renal pathological microscopic examination: peptides 50 μg/kg/day i.p. 3 weeks, 6 heaviest kidneys per group
S180 sarcoma = experiment: Growth of transplanted S180 sarcoma; assay type: in vivo, BALB/c mice; conditions: controls: IL-2, IFN-γ 3 × 10^5 IU/kg, cyclophosphamide 20 mg/kg; saline 1.29 ± 0.50
Description: (§2) Intraperitoneal injection, once per day. […] Treatment of all groups with testing substance lasted for 30 days or until the animal died unless otherwise specified.
Stock S180 sarcoma cells were incubated in DMEM/F12 medium supplemented with 10% fetal bovine serum, 37° C., 5% CO2 for 72 hrs, then washed 3-4 times with Hank's solution at room temperature. Adjust the cell concentration to 1-2×10^9 per litre with Hank's solution. […] The mice were killed by cervical vertebra dislocation. Vigorously growing and non-disrupted tumor masses were harvested and washed clean with sterile saline. The tissue was dispersed in saline to a homogenous cell suspension, in a ratio of 1 g tissue to 4 ml saline. The sarcoma bearing mice model was prepared with an injection of 0.2 ml cell suspension through the armpit. Administration of test substance treatment started as described in section Method 1.
2.2 The Tumor Growth Inhibition Index was Calculated According to the Following Formula: Tumor growth inhibition index=(mean tumor weight of control group−mean tumor weight of treatment group)÷mean tumor weight of control group 3.

L1210 leukemia = experiment: Survival of mice with transplanted L1210 leukemia; assay type: in vivo, DBA/2 mice; conditions: controls: IL-2, IFN-γ 3 × 10^5 IU/kg, cyclophosphamide 20 mg/kg; saline 16.6 ± 5.6
Description: as §2
Stock L1210 cells were incubated in DMEM/F12 medium supplemented with 10% fetal bovine serum, 37° C./5% CO2 for 72 hrs, then washed 3-4 times with Hank's solution, and adjusted to […]. 0.1 ml of the cell suspension was implanted into the abdominal cavity of several healthy DBA mice for 6-8 days. The mice were then killed by cervical vertebra dislocation and their ascitic fluid collected aseptically. The cell concentration of the collected ascitic fluid was adjusted to 1×10^5 per ml with Hank's solution. 0.1 ml of the cell suspension was implanted into each of the testing animal and the survival data of the animals recorded. Treatment started in the testing animals as described in section Method 1. Mean survival day was obtained by the Kaplan-meier method in the Survival option of the SPSS software. If the animal survived longer than the experiment, the survival days was entered as the duration of the experiment. The survival index was calculated according to the following formula: Survival index=(mean survival days of treatment group−mean survival days of control group)÷mean survival days of control group 6. The Effect of Peptides on the Humoral Immunity of C57BL/6 Mice Bearing Transplanted B16 Melanoma and that on the Metastatic Potential of the Inoculated Melanoma Cells

[2] = statistically significant difference from saline in any of the dosage groups 0.5-500 μg/kg/day
[3] = peptide 0.5 μg/kg/day i.p. 15 days
[4] = peptide 50 μg/kg/day i.p. 15 days (IFN-γ, IL-2 3×10^5 IU/kg/day)
[5] = peptide 0.5 μg/kg/day i.p. 15 days (IFN-γ, IL-2 3×10^5 IU/kg/day)
[6] = peptide 5 μg/kg/day i.p. 15 days (IFN-γ, IL-2 3×10^5 IU/kg/day)
[7] = Week 1, peptides 50 μg/kg/day, hydrocortisone 3.3 mg/kg/day i.p., placebo 22.9 ± 22, normal 1.7 ± 1.3
[8] = Week 2, peptides 50 μg/kg/day i.p., hydrocortisone dose halved after first week, placebo 17.2 ± 14.5, normal 2.3 ± 1.1
[9] = Week 3, peptides 50 μg/kg/day i.p., hydrocortisone dose halved after first week, placebo 20.2 ± 29.0, normal 0.4 ± 0.2

Row | Molecule | anti-SRBC antibody formation, X ± SD (Unit) (anti-SRBC antibody; [3]) | effect on the phagocytotic activity of mononuclear phagocyte (summary) (mononuclear phagocyte) | weight of thymus gland (thymus gland index), X ± SD (%) (thymus gland; [5]) | weight of thymus gland (thymus gland index), X ± SD (%) (thymus gland; [6]) | weight of thymus gland (thymus gland index), X ± SD (%) (thymus gland; [4]) | effect on the weight of the thymus gland (summary) (thymus gland) | urine protein level [1, 7] [mg] | urine protein level [1, 8] [mg] | urine protein level [1, 9] [mg] | spleen index ([1]; peptides 50 μg/kg/day i.p.) | Serum creatinine level ([1]; peptides 50 μg/kg/day i.p.) [µmol/L] | renal pathological microscopic examination [1] | also measured
1 | Phe Gln Gln Met (FQQM; printed: Phe Gln Gln Met) [CMS030] | 19 ± 7 | enhance | 0.24 ± 0.05*^@^ % | 0.23 ± 0.07*^ % | 0.25 ± 0.04*^@^ % | increase | 5.4 ± 3.4 | 9.5 ± 16.2 | 2.4 ± 1.5 | 3.0 ± 0.5 ×10^−3 | 93 ± 1 | all pathological parameters of all rats were normal | NK cell cytotoxic activity, X ± SD (%) (NK cell; healthy mice, peptide 500 μg/kg/day i.p. 15 days (IFN-γ, IL-2 3×10^5 IU/kg/day), saline 63 ± 9): 91 ± 5*^@^ %; effect on the cytotoxic activity of NK cells (summary) (NK cell; [2]): increase; anti-SRBC antibody formation, X ± SD (Unit) (anti-SRBC antibody; peptide 5 μg/kg/day i.p. 15 days): 158 ± 37*^@^ Unit; anti-SRBC antibody formation, X ± SD (Unit) (anti-SRBC antibody; peptide 50 μg/kg/day i.p. 15 days): 141 ± 33*^@^ Unit; effect on the synthesis of anti-SRBC antibody upon the antigenic challenge (summary) (anti-SRBC antibody; [2]): enhance; also recorded: inhibit; X ± SD (phagocytotic index) (mononuclear phagocyte; [4]): 6.3 ± 0.5; weight of thymus gland (thymus gland index), X ± SD (%) (thymus gland; peptide 500 μg/kg/day i.p. 15 days (IFN-γ, IL-2 3×10^5 IU/kg/day)): 0.30 ± 0.03*^@^ %; weight of spleen (spleen index), X ± SD (%) (spleen; Table 30, healthy mice, peptide 5 μg/kg/day i.p. 15 days, saline 0.53 ± 0.05): 0.64 ± 0.09 %; effect on the weight of the spleen (summary) (spleen; [2]): increase
2 | C[C@]12CCC(=O)C=C1CC[C@@H]1[C@@H]2[C@@H](O)C[C@@]2(C)[C@H]1CC[C@]2(O)C(=O)CO [hydrocortisone, Hydrocortisone, reference compound] | – | – | – | – | – | – | 3.1 ± 2.0 | 7.5 ± 7.7 | 7.6 ± 7.1 | 4.5 ± 1.4 ×10^−3 | 239 ± 107 | – | growth rate of the rats ([1]; peptides 50 μg/kg/day, hydrocortisone 3.3 mg/kg/day i.p.): slower growth rate than normal
3 | VGMGQKDSY | 3 ± 1 | enhance | 0.20 ± 0.03 % | 0.24 ± 0.04*^@^ % | 0.23 ± 0.02*^@^ % | increase | 7.0 ± 3.7 | 5.5 ± 7.9 | 3.3 ± 3.4 | 3.3 ± 0.8 ×10^−3 | 67 ± 1 | all pathological parameters of all rats were normal | anti-SRBC antibody formation, X ± SD (Unit) (anti-SRBC antibody; peptide 500 μg/kg/day i.p. 15 days): 66 ± 16 Unit; X ± SD (phagocytotic index) (mononuclear phagocyte; [6]): 6.7 ± 1.2
4 | O=P1(N(CCCl)CCCl)NCCCO1 (stereo not shown) [Cyclophosphamide, reference compound] | – | – | – | – | – | – | – | – | – | – | – | – | Tumor weight (S180 sarcoma): 0.68 ± 0.32 g; Survival days (L1210 leukemia): 24.0 ± 5.3 days
